{"source": "patent US20020137767A1", "about": "“Methods for treating addictive disorders” (priority 1999, published 2002)", "key": {"5-HT2 receptors": {"test_system": "5-HT2 receptors", "settings": "po; male CD rats; cited from earlier work"}, "[1]": {"test_system": "stereotypy induced by d-amphetamine sulphate", "settings": "ip; d-amphetamine sulphate 10 mg/kg sc; male CD rats; cited from earlier work"}, "D1-receptors": {"test_system": "D1-receptors", "settings": "po pretreatment; D2-mediated atypical jerking; male SD rats; cited from earlier work"}, "catalepsy": {"test_system": "catalepsy", "settings": "ip; male CD rats; cited from earlier work"}, "D1-like receptors": {"test_system": "D1-like receptors", "settings": "po; male CD rats; cited from earlier work"}, "D2-like receptors": {"test_system": "D2-like receptors", "settings": "po; male CD rats; cited from earlier work"}, "[2]": {"test_system": "locomotion induced by d-amphetamine sulphate", "settings": "male CD rats, cited from earlier work"}, "[3]": {"test_system": "discriminative stimulus effects of cocaine", "test": "Cocaine drug discrimination, pretreatment protocol (Example 2)", "assay_type": "in vivo, rhesus monkeys (Macaca mulatta)", "description": "During the week, all food was delivered after the experimental session, whereas at weekends, food was delivered between 9 a.m. and noon. Water was freely available at all times.\nA computer, located in a separate room, controlled the operant panels and data collection.\nDiscrimination Training: Discrimination training was conducted 5 days per week during daily sessions composed of multiple cycles. Each cycle consisted of a 15 min time-out period followed by a 5 min response period. During the time-out, all stimulus lights were off, and responding had no scheduled consequences. During the response period, the right and left response keys were transilluminated red or green, and monkeys could earn up to 10 food pellets by responding under a FR 30 schedule of food presentation. For one monkey, the left key was illuminated green and the right key was illuminated red; the colors of the response-keys were reversed for the other three monkeys. The center key was not illuminated at any time and responding on it had no scheduled consequences.\nOn training days, monkeys were given either saline or 0.40 mg/kg cocaine, i.m., 10 min before the response period. Following the administration of saline, responding on only the green key (the saline-appropriate key) produced food, whereas following administration of 0.40 mg/kg cocaine, only responding on the red key (the drug-appropriate key) produced food. Responses on the inappropriate key reset the FR requirement on the appropriate key. Sessions consisted of 1 to 5 cycles and, if cocaine was administered, this occurred only during the last cycle. Thus, training days consisted of 0 to 5 saline cycles followed by 0 or 1 cocaine cycle.\nDuring each response period, 3 dependent variables were determined:\n1) Percent injection-appropriate responding prior to delivery of the first reinforcer.\n2) Percent injection-appropriate responding for the entire response period.\nMonkeys meeting the following criteria during the training day immediately proceeding the test day and in at least 6 of 7 consecutive training sessions before this, were used for discrimination testing:\n1) the percent injection-appropriate responding prior to delivery of the first reinforcer was ≧80% for all cycles;\n2) the percent injection-appropriate responding for the entire cycle was ≧90% for all cycles;\n3) Response rates during saline training cycles were >0.5 responses per second.\nDiscrimination Testing: Test sessions were identical to training sessions except that responding on either key produced food, and the test compound was administered using a Pretreatment Protocol. In this protocol, a cumulative dose-effect curve for cocaine (0.013-1.3 mg/kg) was determined either alone or following pretreatment with the test compound, which was administered 20 min before the first dose of cocaine.\nMean data from saline and drug cycles during the training day immediately proceeding the initial test day served as the control data for the subsequent test day."}, "food-maintained behavior": {"test_system": "food-maintained behavior", "test": "Food-maintained responding, FR 30, food components (Example 3)"}, "[4]": {"test_system": "cocaine self-administration", "test": "Cocaine self-administration, FR 30, drug component (Example 3)"}, "[5]": {"settings": "i.m. 20 min before session, cocaine 0.003 mg/kg/inj, individual monkeys, hydrobromide"}}, "note": "Several values for one entry are separate records, joined by “and”; a condition that tells them apart may be missing. Equal values may be shown once.", "data": [{"compound": "COc1cc2c(cc1O)C(C1(c3ccccc3Cl)CC1)N(C)CC2", "note": "(single isomer, unassigned; (+)) [BTS 73 947, (+)-1-[1-(2-chlorophenyl)cyclopropyl]-7-hydroxy-6-methoxy-2-methyl-1,2,3,4-tetrahydroisoquinoline]", "values": [{"measurement": "protection of 5-HT2 receptors from EEDQ inactivation", "setting": "5-HT2 receptors", "value": "no effect"}, {"measurement": "ED50 to inhibit stereotypy induced by d-amphetamine sulphate", "setting": "[1]", "value": 2.4, "unit": "mg/kg"}, {"measurement": "ED15 (dose induced 15 jerks in the 15 min test period)", "setting": "D1-receptors", "value": 3.4, "unit": "mg/kg"}, {"measurement": "ED50 to induce catalepsy", "setting": "catalepsy", "value": 25.4, "unit": "mg/kg"}, {"measurement": "ratio of ED50 to induce catalepsy to ED50 to inhibit amphetamine locomotion", "setting": "catalepsy", "value": 36}, {"measurement": "ED50 for protection of D1-like receptors from EEDQ inactivation", "setting": "D1-like receptors", "value": 1, "unit": "mg/kg"}, {"measurement": "protection of D2-like receptors from EEDQ inactivation", "setting": "D2-like receptors", "value": "no effect"}, {"measurement": "duration of action", "setting": "[2]; behavioral models", "value": "> 6", "unit": "h"}, {"measurement": "time of peak effect post-dose", "setting": "[2]; behavioral models", "value": 4, "unit": "h"}, {"measurement": "ED50 to inhibit locomotion induced by d-amphetamine sulphate", "setting": "[2]; ip, d-amphetamine sulphate 2.5 mg/kg sc", "value": 0.7, "unit": "mg/kg"}, {"measurement": "fold greater potency against limbic DA function (locomotion vs stereotypy)", "setting": "[2]; ratio of stereotypy and locomotion ED50, ip", "value": "~3.5", "unit": "fold"}]}, {"compound": "Br.COc1cc2c(cc1O)C(C1(c3ccccc3Cl)CC1)N(C)CC2", "note": "(single isomer, unassigned; (+)) [test compound, (+)-1-[1-(2-chlorophenyl)cyclopropyl]-7-hydroxy-6-methoxy-2-methyl-1,2,3,4tetrahydroisoquinoline hydrobromide]", "values": [{"measurement": "effect on responding (response rate) during first one to three cycles", "setting": "[3]; 0.01 and 0.032 mg/kg, in combination with 0.013 and 0.04 mg/kg cocaine", "value": "eliminated responding"}, {"measurement": "fold increase in the cocaine ED50 value", "setting": "[3]; pretreatment 0.01 mg/kg, monkey 2", "value": 3, "unit": "fold"}, {"measurement": "effect on the cocaine discrimination dose-effect curve", "setting": "[3]; pretreatment 0.01 mg/kg, the other three monkeys (1, 3, 4)", "value": "no effect"}, {"measurement": "effect on the cocaine discrimination dose-effect curve", "setting": "[3]; pretreatment 0.032 mg/kg, all four monkeys", "value": "rightward shifts"}, {"measurement": "ED50 for cocaine after pretreatment with test compound 0.01 mg/kg", "setting": "[3]; test compound 0.01 mg/kg 20 min before first cocaine dose, individual monkeys 1-4, hydrobromide", "value": "0.24 mg/kg and 0.23 mg/kg and 0.72 mg/kg"}, {"measurement": "ED50 for cocaine after pretreatment with test compound 0.032 mg/kg", "setting": "[3]; test compound 0.032 mg/kg 20 min before first cocaine dose, individual monkeys 1-4, hydrobromide", "value": "0.72 mg/kg and 0.071 mg/kg"}, {"measurement": "ED50", "setting": "food-maintained behavior; Macaca mulatta, read-out: ED50 for decreasing response rates maintained by food (Food #1, preceded the drug component), i.m. 20 min before session, cocaine 0.003 mg/kg/inj, individual monkeys", "value": 0.003, "unit": "mg/kg"}, {"measurement": "ED50 for decreasing response rates maintained by food (Food #1, preceded the drug component)", "setting": "food-maintained behavior; [5]", "value": 0.002, "unit": "mg/kg"}, {"measurement": "ED50 for decreasing response rates maintained by food (Food #2, followed the drug component)", "setting": "food-maintained behavior; [5]", "value": "0.011 mg/kg and 0.006 mg/kg and 0.002 mg/kg"}, {"measurement": "effect on food-maintained response rates in the first component of food availability", "setting": "food-maintained behavior; pretreatment 0.01 mg/kg", "value": "appreciably decreased"}, {"measurement": "ED50 for decreasing response rates maintained by cocaine (Drug component)", "setting": "[4]; [5]", "value": "0.002 mg/kg and 0.001 mg/kg and 0.004 mg/kg"}, {"measurement": "rightward shift of the peak of the dose-effect function for cocaine self-administration", "setting": "[4]; lower pretreatment dose (0.003 mg/kg), on average", "value": 3, "unit": "fold"}, {"measurement": "surmountability of treatment effects by increased self-administration of higher unit doses of cocaine", "setting": "[4]; pretreatment 0.003 and 0.01 mg/kg, any monkey", "value": "not surmounted"}]}, {"compound": "COC(=O)[C@H]1[C@@H](OC(=O)c2ccccc2)C[C@@H]2CC[C@H]1N2C.Cl", "note": "[Cocaine, Cocaine hydrochloride, reference compound]", "values": [{"measurement": "substitution for training stimulus (cocaine-appropriate responding)", "setting": "[3]; cocaine alone 0.4 mg/kg (training dose), all monkeys", "value": "Complete substitution"}, {"measurement": "effect on response rates", "setting": "[3]; cocaine alone 1.3 mg/kg", "value": "decreased response rates"}, {"measurement": "ED50 for cocaine (50% cocaine-appropriate responding), Cocaine Alone", "setting": "[3]; cumulative cocaine 0.013-1.3 mg/kg i.m., no pretreatment, individual monkeys 1-4", "value": 0.23, "unit": "mg/kg"}]}]}
